# Assay results from patent publication US11413280B2 (The Board of Trustees of the Leland Stanford Junior …, priority 2017, dated 2022).
# What was measured:
# Format in all cases: cell-based, human
# BMPR2 = experiment: Relative BMPR2 mRNA expression in PAECs (qPCR); conditions: PAEC, 24 hours, low doses (5-15 uM), FIG. 14
# Method: Human PAEC (Promocell) or human PASMC (Promocell) were grown as monolayers in gelatin-coated dishes in a commercial EC (Promocell) or SMC (Promocell) media, respectively. Cells were passaged at 1:3 ratios and used for experiments from passages 3-8. Transformed lymphocytes (i.e., lymphoblasts) were cultured in RPMI 1640 with 10-15% FBS.
# FHIT expression was modulated by RNAi in PA endothelial cells (PAEC). A pool of 4 siRNAs for BMPR2, FHIT, LCK or a non-targeting control pool (Dharmacon) were transfected into PAECs using the RNAi Max kit (Invitrogen) for 48 hours. mRNA knockdown efficiency was determined by qPCR.
# For mRNA, total RNA was extracted from whole lung tissue using the RNAeasy Plus Kit (Qiagen) and reverse transcribed into cDNA using random primers with the Taqman cDNA reverse transcription Kit (Applied Biosciences) according to the manufacturer's instructions. For miR, total miR was isolated from whole lung tissue using the Taqman miRNA ABC purification Kit (Applied Biosciences) and was reverse transcribed using specific primers and the Taqman microRNA reverse transcription kit (Applied Biosciences). mRNA and miR expression levels were quantified using Taqman primer/probe sets for the target and normalized to a housekeeping control (mRNA: GAPDH; miR: RNU48). […]
# PASMC = experiment: MTT proliferation assay in PASMC; conditions: siFHIT PASMC, Enzastaurin 5 M as printed
# PAEC = experiment: Trypan Blue viability assay and total cell counts
structure (smiles),measurement,setting,value
"Cn1cc(C2=C(c3cn(C4CCN(Cc5ccccn5)CC4)c4ccccc34)C(=O)NC2=O)c2ccccc21 [Enzastaurin, 3-(1-methyl-1H-indol-3-yl)-4-[1-[1-(pyridin-2-ylmethyl)piperidin-4-yl]-1H-indol-3-yl]-1H-pyrrole-2,5-dione]",BMPR2 expression at low doses in vitro,BMPR2,increased
same,Increased PASMC proliferation induced by reductions in FHIT (MTT),PASMC,rescued
same,Total cell counts,PAEC; Enzastaurin up to 50 μM,increased cell numbers
same,Cell toxicity by Trypan Blue viability assay,PAEC; varying concentrations of Enzastaurin,did not elicit cell toxicity
